Experimental data taken from patent US20020028836A1, “Potassium channel openers” (priority 2000, published 2002).
Where two headings read alike, the source gives them in different places.

What was measured:
[1] = system: tissue strips obtained from Landrace pig bladders; assay: Functional potassium channel opening activity in isolated bladder strips (field-stimulated twitch); conditions: for Index: ED50 for P1075 divided by ED50 for the test agonist in a given tissue, averaged; for EC50: amount of agent necessary to cause 50% of the agent's maximal response, read-out: ED50 (the source's name); for Emax / Efficacy (% P1075): maximal efficacy relative to P1075, field stimulation 0.05 Hz, 0.5 ms, 20 volts
How it was run: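 Mucosa-free female Landrace pig bladder strips in Krebs Ringer bicarbonate (pH 7.4, 37° C., 0.004 mM propranolol), 1.0 g preload, field-stimulated at 0.05 Hz, 0.5 ms, 20 V for twitch. Cumulative concentration-response curves; maximal efficacy as % of P1075, ED50 fitted, potency index = P1075 ED50/test ED50 per tissue, averaged.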

[2] = system: primary cultured guinea-pig urinary bladder (GPB) cells; assay: Membrane hyperpolarization (MHP) assay, DiBAC(4)3 / FLIPR; format: cell-based; conditions: for EC50: concentration that elicits 50% of the maximal response for the test sample; for Emax / Maximal Response (% P1075): maximal steady-state hyperpolarization, normalized to response with 10 μM P1075 (100%)
Procedure: Compounds were evaluated for potassium channel opening activity using primary cultured guinea-pig urinary bladder (GPB) cells.
For the preparation of urinary bladder smooth muscle cells, urinary bladders were removed from male guinea-pigs (Hartley, Charles River, Wilmington, Mass.) weighing 300-400 g and placed in ice-cold Ca^2+-free Krebs solution (Composition, mM: KCl, 2.7; KH2PO4, 1.5; NaCl, 75; Na2HPO4, 9.6; Na2HPO4.7H2O, 8; MgSO4, 2; glucose, 5; HEPES, 10; pH 7.4). Cells were isolated by enzymatic dissociation as previously described with minor modifications (Klockner, U. and Isenberg, G., Pflugers Arch. (1985), 405, 329-339), hereby incorporated by reference. The bladder was cut into small sections and incubated in 5 mL of the Kreb's solution containing I mg/mL collagenase (Sigma, St. Louis, Mo.) and 0.2 mg/mL pronase (Calbiochem, La Jolla, Calif.) with continuous stirring in a cell incubator for 30 minutes. The mixture was then centrifuged at 1300×g for 5 minutes, and the pellet resuspended in Dulbecco's PBS (GIBCO, Gaithersburg, Md.) and recentrifuged to remove residual enzyme. The cell pellet was resuspended in 5 mL growth media (composition: Dulbecco's modified Eagle's medium supplemented with 10% fetal bovine serum, 100 units/mL penicillin, 100 units/mL streptomycin and […] amphotericin B) and further dissociated by pipetting the suspension through a flame-polished Pasteur pipette and passing it through a polypropylene mesh membrane (Spectrum, Houston, Tex.). The cell density was adjusted to 100,000 cells/mL by resuspension in growth media. Cells were plated in clear-bottomed black 96-well plates (Packard) for membrane potential studies at a density of 20,000 cells/well and maintained in a cell incubator with 90% air: 10% CO2 until confluent. Cells were confirmed to be of smooth muscle type by cytoskeletal staining using a monoclonal mouse anti human-α-smooth muscle actin (Biomeda, Foster City, Calif.).
Functional activity at potassium channels was measured by evaluating changes in membrane potential using the bis-oxonol dye DiBAC(4) (Molecular Probes) in a 96-well cell-based kinetic assay system, Fluorescent Imaging Plate Reader (FLIPR) (K. S. Schroeder et al., J. Biomed. Screen., v. 1 pp. 75-81 (1996)), hereby incorporated by reference. DiBAC(4)3 is an anionic potentiometric probe which partitions between cells and extracellular solution in a membrane potential-dependent manner. With increasing membrane potential (for example, K^+ depolarization), the probe further partitions into the cell; this is measured as an increase in fluorescence due to dye interaction with intracellular lipids and proteins. Conversely, decreasing membrane potential (hyperpolarization by potassium channel openers) evokes a decrease in fluorescence.
Confluent guinea-pig urinary bladder cells cultured in black clear-bottomed 96-well plates were rinsed twice with […] assay buffer (composition, mM: HEPES, 20; NaCl, 120; KCl, 2; CaCl2, 2; MgCl2, 1; glucose, 5; pH 7.4 at 25° C.) containing 5 μM DiBAC(4)3 and incubated with […] of the buffer in a cell incubator for 30 minutes at 37° C. to ensure dye distribution across the membrane. After recording the baseline fluorescence for 5 minutes, the reference or test compounds, prepared at 10 times the concentration in the assay buffer, were added directly to the wells. Changes in fluorescence were monitored for an additional 25 minutes. Hyperpolarization responses were corrected for any background noise and were normalized to the response observed with 10 μM of the reference compound P1075 (assigned as 100%), a potent opener of smooth muscle KATP channels (Quast et al., Mol. Pharmacol., v. 43 pp. 474-481 (1993)), hereby incorporated by reference.
Routinely, five concentrations of P1075 or test compounds (log or half-log dilutions) were evaluated and the maximal steady-state hyperpolarization values (expressed as % relative to P1075) plotted as a function of concentration. […]

Row | Compound | melting point [°C] | Index [1] | EC50 ([1]; Sus scrofa) [nM] | Emax ([1]; Sus scrofa) [%] | EC50 ([2]; Cavia porcellus) [nM] | Emax ([2]; Cavia porcellus) [%] | EC50 [1] [nM] | Efficacy (% P1075) [1] [% P1075] | EC50 [2] [nM] | Maximal Response (% P1075) [2] [% P1075]
1 | CC(C)(C)C(NC(=O)c1ccc(Cl)cc1)NC(=NC#N)Nc1cccc(Cl)c1 (stereo not shown) [Example 75, 4-chloro-N-(1-{[(cyanoimino)(3-chloroanilino)methyl]amino}-2,2-dimethylpropyl)benzamide] | 158 to 160 | – | – | – | – | – | – | – | – | –
2 | COc1ncccc1NC(=NC#N)NC(NC(=O)c1cc(F)cc(F)c1)C(C)(Cl)Cl (stereo not shown) [Example 157, N-[2,2-dichloro-1-({(cyanoimino)[(2-methoxy-3-pyridinyl)amino]methyl}amino)propyl]-3,5-difluorobenzamide] | 125 to 126 | – | – | – | – | – | – | – | – | –
3 | CC(Cl)(Cl)C(NC(=O)c1cc(Cl)cc(Cl)c1)NC(=NS(=O)(=O)C(F)(F)F)Nc1cccnc1 (stereo not shown) [Example 190, 3,5-dichloro-N-{2,2-dichloro-1-[((3-pyridinylamino){[(trifluoromethyl)sulfonyl]imino}methyl)amino]propyl}benzamide] | 213 to 215 | – | – | – | – | – | – | – | – | –
4 | COc1ccccc1NC(=NC#N)NC(NC(=O)c1ccc(Cl)cc1)C(C)(Cl)Cl (stereo not shown) [Example 181, 4-chloro-N-(2,2-dichloro-1-{[(cyanoimino)(2-methoxyanilino)methyl]amino}propyl)benzamide] | 185 to 186 | – | – | – | – | – | – | – | – | –
5 | Cc1ccc(C(=O)NC(NC(=S)Nc2ccccc2C)C(F)(F)F)cc1 (stereo not shown) [Example 2, 4-methyl-N-{2,2,2-trifluoro-1-[(2-toluidinocarbothioyl)amino]ethyl}benzamide] | 210 to 211 | – | – | – | – | – | – | – | – | –
6 | COc1ccc(NC(=NC#N)NC(NC(=O)c2cccc(Cl)c2)C(C)(Cl)Cl)cn1 (stereo not shown) [Example 182, 3-chloro-N-[2,2-dichloro-1-({(cyanoimino)[(6-methoxy-3-pyridinyl)amino]methyl}amino)propyl]benzamide] | 189 to 190 | – | – | – | – | – | – | – | – | –
7 | CC(C)(C)C(NC(=O)c1ccc(Cl)cc1)NC(=NC#N)Nc1ccccc1F (stereo not shown) [Example 69, 4-chloro-N-(1-{[(cyanoimino)(2-fluoroanilino)methyl]amino}-2,2-dimethylpropyl)benzamide] | 208 to 209 | – | – | – | – | – | – | – | – | –
8 | CC(C)(C)OC(=O)N1CCC[C@@H]1[C@@H](NC(=O)c1ccc(Cl)cc1)NC(=NC#N)Nc1cccnc1 [Example 98, Tert-butyl (2R)-2-((R)-[(4-chlorobenzoyl)amino]{[(cyanoimino)(3-pyridinylamino)methyl]amino}methyl)-1-pyrrolidinecarboxylate] | – | 0.004 | 33000 | 30 | 1100 | 62 | – | – | – | –
9 | Cc1ccc(C(=O)NC(NC(=S)Nc2cc(F)ccc2F)C(F)(F)F)cc1 (stereo not shown) [Example 14, N-(1-{[(2,5-difluoroanilino)carbothioyl]amino}-2,2,2-trifluoroethyl)-4-methylbenzamide] | – | 0.027 | 14000 | 96 | 300 | 110 | – | – | – | –
10 | Cc1ccc(C(=O)NC(NC(=S)Nc2ccccc2)C(F)(F)F)cc1 (stereo not shown) [Example 9, N-{1-[(anilinocarbothioyl)amino]-2,2,2-trifluoroethyl}-4-methylbenzamide] | – | 0.011 | 17000 | 91 | 80 | 104 | – | – | – | –
11 | O=C(CCc1ccccc1)NC(NC(=S)Nc1cccc([N+](=O)[O-])c1)C(Cl)(Cl)Cl (stereo not shown) [Example 149, 3-phenyl-N-(2,2,2-trichloro-1-{[(3-nitroanilino)carbothioyl]amino}ethyl)propanamide] | – | 0.076 | 2400 | 95 | 84 | 129 | – | – | – | –
12 | Cc1ccc(C(=O)NC(NC(=S)Nc2cccc([N+](=O)[O-])c2)C(C)(C)C)cc1 (stereo not shown) [Example 25, N-(2,2-dimethyl-1-{[(3-nitroanilino)carbothioyl]amino}propyl)-4-methylbenzamide] | – | 0.078 | 1000 | 100 | 70 | 103 | – | – | – | –
13 | Cc1ccccc1C(=O)NC(NC(=NC#N)Nc1cccnc1)C(Cl)(Cl)Cl (stereo not shown) [Example 50, 2-methyl-N-(2,2,2-trichloro-1-{[(cyanoimino)(3-pyridinylamino)methyl]amino}ethyl)benzamide] | – | 0.007 | 17000 | 90 | 100 | 92 | – | – | – | –
14 | Cc1ccc(C(=O)NC(NC(=S)Nc2cccnc2)C(C)(C)C)cc1 (stereo not shown) [Example 22, N-(2,2-dimethyl-1-{[(3-pyridinylamino)carbothioyl]amino}propyl)-4-methylbenzamide] | – | 0.017 | 5000 | 100 | 220 | 100 | – | – | – | –
15 | CCC(CC)(CCC#N)C(NC(=O)c1ccc(Cl)cc1)NC(=NC#N)Nc1cccnc1 (single isomer, unassigned; (+)) [Example 87, (+) 4-chloro-N-(4-cyano-1-{[(cyanoimino)(3-pyridinylamino)methyl]amino}-2,2-diethylbutyl)benzamide] | – | 0.02 | – | – | – | – | 7600 | 67 | 520 | 85
16 | Cc1ccc(C(=O)NC(NC(=S)Nc2cccc(F)c2)C(F)(F)F)cc1 (stereo not shown) [Example 13, 4-methyl-N-(2,2,2-trifluoro-1-{[(3-fluoroanilino)carbothioyl]amino}ethyl)benzamide] | – | 0.022 | 10000 | 95 | 350 | 91 | – | – | – | –
17 | CC1=C(CC(NC(=O)c2ccc(Cl)cc2)NC(=NC#N)Nc2cccnc2)C(C)(C)CCC1 (single isomer, unassigned; (-)) [Example 89, (−) 4-chloro-N-[1-{[(cyanoimino)(3-pyridinylamino)methyl]amino}-2-(2,6,6-trimethyl-1-cyclohexen-1-yl)ethyl]benzamide] | – | 0.120 | – | – | – | – | 3400 | 41 | 100 | 88
18 | Cc1ccc(C(=O)NC(NC(=S)Nc2ccc(F)cc2)C(F)(F)F)cc1 (stereo not shown) [Example 3, 4-methyl-N-(2,2,2-trifluoro-1-{[(4-fluoroanilino)carbothioyl]amino}ethyl)benzamide] | – | 0.012 | 9000 | 97 | 890 | 79 | – | – | – | –
19 | CC1=C(CC(NC(=O)c2ccc(Cl)cc2)NC(=NC#N)Nc2cccnc2)C(C)(C)CCC1 (single isomer, unassigned; (+)) [Example 88, (+) 4-chloro-N-[1-{[(cyanoimino)(3-pyridinylamino)methyl]amino}-2-(2,6,6-trimethyl-1-cyclohexen-1-yl)ethyl]benzamide] | – | 0.074 | – | 36 | – | – | 10000 | – | 220 | 87
